Test results: article PMC6812009, “Covalent Aurora A regulation by the metabolic integrator coenzyme A” (Redox Biology, 2019)
Positions count from the first letter of the chain named.

What was measured:
[1] = tested on: mouse oocytes; experiment: Microinjection of mouse oocytes, spindle formation and chromosome alignment; type: cell-based; details: injected with 3 mM compound, 17 h after GV release
Description: Mouse oocytes arrested at the GV stage were injected with different concentrations of CoA (0.15–5 mM). Since the commercial preparation of CoA used for microinjection contained 3 mol of lithium ions per mole of CoA, control oocytes were injected with an equivalent amount of LiCl. In a separate study, oocytes were injected with 3 mM CoA, ADP, AMP, 3′-5′-ADP and pantetheine. To examine the effect of injected compounds on spindle formation, oocytes were fixed 17 h after GV release and stained for alpha-tubulin (green) and DNA (blue).

[2] = molecular target: T1, WT Aurora A (T288 phosphorylated, active) (Homo sapiens, UniProt O14965); experiment: Thermal shift assay (differential scanning fluorimetry); type: binding; details: 5 mM ATP, 5 mM CoA or 0.1 mM MLN8237; for CoA dependent on non-reducing conditions
T1 construct: Bacterially expressed full-length His-Aurora A was used to determine the IC50 value for CoA; made in house; host or cells: E. coli BL21 (DE3) pLysS
T1 sequence (O14965 1-403): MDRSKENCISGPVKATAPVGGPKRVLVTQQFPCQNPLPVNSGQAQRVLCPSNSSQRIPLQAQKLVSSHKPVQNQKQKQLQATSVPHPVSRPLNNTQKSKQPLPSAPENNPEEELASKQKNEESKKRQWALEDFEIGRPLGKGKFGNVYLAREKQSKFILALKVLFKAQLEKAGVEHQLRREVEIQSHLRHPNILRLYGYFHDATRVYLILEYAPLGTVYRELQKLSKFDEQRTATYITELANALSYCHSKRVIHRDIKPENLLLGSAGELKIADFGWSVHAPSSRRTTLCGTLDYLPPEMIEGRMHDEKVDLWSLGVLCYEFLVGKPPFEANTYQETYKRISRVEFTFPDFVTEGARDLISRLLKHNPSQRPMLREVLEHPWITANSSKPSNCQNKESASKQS
Description: (§1) Asp274Asn and Thr217Glu Aurora A mutants were generated by PCR-site directed mutagenesis, expressed and purified as described previously. Cys290Ala Aurora A was generated using standard procedures, and purified as described.
(§2) Thermal-shift assays were performed with a StepOnePlus Real-Time PCR machine (Life Technologies) using Sypro-Orange dye (Invitrogen) and thermal ramping (0.3 °C in step intervals between 25 and 94 °C). All proteins were diluted to a final concentration of 5 μM in 50 mM Tris/HCl, pH 7.4 and 100 mM NaCl in the presence or absence of the indicated concentrations of ligand (final DMSO concentration no higher than 4 % v/v). CoA, dephosphoCoA or kinase inhibitors diluted from 10 mM DMSO stocks were assayed as described previously. Normalized data were processed using the Boltzmann equation to generate sigmoidal denaturation curves, and average Tm/ΔTm values calculated as previously described using GraphPad Prism software.

[3] = molecular target: T2, C290A Aurora A (Homo sapiens, UniProt O14965, C290A); experiment: as above; type: binding; details: 5 mM ATP or 5 mM CoA
T2 construct: For enzyme and DSF assays, full-length human Aurora A and Aurora B and 1–43 TPX2 were produced; made in house; host or cells: E. coli BL21 (DE3) pLysS
T2 sequence (O14965 whole entry C290A): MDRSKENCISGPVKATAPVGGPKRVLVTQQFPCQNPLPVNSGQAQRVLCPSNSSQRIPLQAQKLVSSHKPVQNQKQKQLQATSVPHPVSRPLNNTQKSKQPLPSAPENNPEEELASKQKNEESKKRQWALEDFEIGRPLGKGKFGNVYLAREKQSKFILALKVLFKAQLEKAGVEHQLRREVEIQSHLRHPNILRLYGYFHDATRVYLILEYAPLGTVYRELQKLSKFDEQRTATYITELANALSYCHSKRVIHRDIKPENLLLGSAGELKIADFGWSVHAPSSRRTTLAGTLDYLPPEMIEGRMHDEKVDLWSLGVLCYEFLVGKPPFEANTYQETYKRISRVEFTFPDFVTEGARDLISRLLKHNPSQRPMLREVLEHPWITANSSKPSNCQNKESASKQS
Description: as §1, §2

[4] = molecular target: T3, kinase-dead D274N (inactive) Aurora A (Homo sapiens, UniProt O14965, D274N); experiment: as above; type: binding; details: 5 mM ATP or 5 mM CoA; CoA DTT-dependent
T3 construct: For enzyme and DSF assays, full-length human Aurora A and Aurora B and 1–43 TPX2 were produced; 6His (N); made in house; host or cells: E. coli
T3 sequence (O14965 whole entry D274N): as the sequence (O14965 whole entry C290A) above, with D274N, A290C counted along it
Description: as §1, §2

[5] = molecular target: T4, T217E Aurora A (Homo sapiens, UniProt O14965, T217E); experiment: as above; type: binding; details: 5 mM ATP, 5 mM CoA or 0.1 mM MLN8237
T4 construct: For enzyme and DSF assays, full-length human Aurora A and Aurora B and 1–43 TPX2 were produced; made in house; host or cells: E. coli
T4 sequence (O14965 1-403 T217E): T1 sequence (O14965 1-403) with T217E
Description: as §1, §2

[6] = molecular target: T5, Aurora A (inactive), unphosphorylated (PP1-treated) (Homo sapiens, UniProt O14965); experiment: Lanthascreen Eu Kinase FRET binding assay
T5 construct: For enzyme and DSF assays, full-length human Aurora A and Aurora B and 1–43 TPX2 were produced; made in house; host or cells: E. coli
T5 sequence (O14965 1-403): T1 sequence (O14965 1-403)
Description: (§3) A Lanthascreen Eu Kinase FRET Binding Assay (Invitrogen) was employed to determine IC50 values for the interaction of Aurora A with CoA, dpCoA, ATP, and ADP. […] Recombinant Aurora A was incubated with Europium-conjugated anti-histidine tag antibody and an Alexa Fluor 647-labelled tracer, which binds to the ATP binding pocket of Aurora A. The close proximity of the anti-histidine (epitope-tag) antibody and the tracer results in a high degree of FRET (fluorescence resonance energy transfer) from the europium donor fluorophore to the Alexa Fluor 647 acceptor fluorophore. ATP-competitive inhibitors, such as CoA, displace the tracer from the active site, causing a loss of FRET signal. Assay set-up was performed as described by the manufacturer. Briefly, the time-resolved fluorescence resonance energy transfer assay (TR-FRET) was performed in black, low volume 384 well plates (Corning). Each well contained 5 nM kinase, 2 nM Eu-anti-His antibody and 10 nM kinase tracer 236 in kinase buffer A (50 mM Hepes pH 7.5, 10 mM MgCl2, 1 mM […], 0.01% (v/v) Brij-35), varying amounts of CoA, dpCoA, ATP, and ADP. The reaction mix was incubated for 1h at room temperature. The signal was measured at 665/620 nm emission ratio using BMG LABTECH plate reader (PHERAstar). All assays were performed using duplicates. The 11-point response curves were generated using GraphPad Prism software from the inhibition data generated.

[7] = molecular target: T6, Aurora A (active), T288 phosphorylated (Homo sapiens, UniProt O14965); experiment: Lanthascreen Eu Kinase FRET binding assay; details: T288 phosphorylated Aurora A; read-out: Aurora A (active) IC50 (μM), binding assay
T6 construct: For enzyme and DSF assays, full-length human Aurora A and Aurora B and 1–43 TPX2 were produced; made in house; host or cells: E. coli
T6 sequence (O14965 1-403): T1 sequence (O14965 1-403)
Description: as §3

[8] = molecular target: T7, Aurora A (active) (Homo sapiens, UniProt O14965); experiment: In vitro Aurora A kinase assay (γ33P-ATP incorporation into myelin basic protein); type: biochemical; details: 5 μM ATP, absence of DTT; read-out: IC50, Aurora A kinase activity
T7 construct: Bacterially expressed full-length His-Aurora A was used to determine the IC50 value for CoA; made in house; host or cells: E. coli BL21 (DE3) pLysS
T7 sequence (O14965 1-403): T1 sequence (O14965 1-403)
Description: Profiling of 117 protein kinases with CoA, dpCoA and ADP was carried out at the International Centre for Protein Kinase Profiling at the University of Dundee. Each compound was tested in vitro, in duplicate, at 100 μM final concentration using recombinant kinases, model substrates and optimal concentrations of ATP. Bacterially expressed full-length His-Aurora A was used to determine the IC50 value for CoA (in the presence or absence of DTT), dpCoA, ADP and desulfo-CoA. The assay was performed in the presence of 5 μM competing ATP. To examine whether the inhibitory effect of CoA on Aurora A is modulated by TPX2, IC50 values for CoA were also generated in the presence and absence of 1 μg TPX2 (residues 1–43) fragment.
Aurora A kinase activity was assayed by measuring incorporation of γ^33P-ATP into myelin basic protein (Sigma). Purified recombinant protein (100 ng) was incubated at room temperature for 30 min in a total volume of 15 μl containing 50 mM HEPES pH 7.5, 10 mM MgCl2, 1 mM EGTA, 0.05% Brij-35, 0.5 mg/ml myelin basic protein, and 5 μM γ^33P-ATP (100–10,000 dpm/pmol). The reaction was stopped by spotting the reaction mixture onto squares of P81 phosphocellulose ion exchange paper (Whatmann), which were then immersed in 1.5% (v/v) phosphoric acid. After washing twice in 1% phosphoric acid followed by two washes in distilled water, the papers were air dried and radioactivity was counted by a scintillation counter and recorded by Quantasmart version 2.03.

[9] = tested on: FLAG-tagged Aurora A in HEK293/Pank1β cells; experiment: Aurora A CoAlation in cells treated with oxidising agents (FLAG immunoprecipitation, anti-CoA immunoblot); type: cell-based, human; details: 30 min; 250 μM H2O2, 500 μM diamide, 50 μM menadione, 10 μM phenylarsine oxide
[10] = tested on: FLAG-tagged Aurora A in HEK293/Pank1β cells; experiment: Aurora A Thr 288 phosphorylation and dimerization in cells treated with oxidising agents (immunoblot); type: cell-based, human; details: 30 min treatment; for Formation of Aurora A dimers in cells: non-reducing conditions; for Aurora A phosphorylation at Thr 288 in cells: samples separated in the presence of DTT
[11] = molecular target: T8, FLAG-tagged WT Aurora A (human), O14965; experiment: non-reducing SDS-PAGE and immunoblot of an anti-FLAG immunoprecipitate; FLAG-Aurora A immunoprecipitated from HEK293/Pank1β cells treated 30 min with oxidising agents (250 μM H2O2, 500 μM diamide, 50 μM menadione, 10 μM phenylarsine oxide, 1 μM rotenone); SDS-PAGE under reducing and non-reducing conditions; blots with anti-FLAG and anti-pT288; dimers seen under non-reducing conditions; details: remark: other sources report otherwise
T8 chain: T1 sequence (O14965 1-403)

[12] = molecular target: T9, purified Aurora A (human), O14965; experiment: non-reducing SDS-PAGE; purified Aurora A briefly exposed to peroxide; reducing compared with non-reducing SDS-PAGE; dimer sensitive to DTT; details: remark: other sources report otherwise
T9 chain: T1 sequence (O14965 1-403)

## Nc1ncnc2c1ncn2[C@@H]1O[C@H](COP(=O)(O)O)[C@@H](O)[C@H]1O [AMP]
[1]
  Disruption of bipolar spindle formation and chromosome alignment: not

## Nc1ncnc2c1ncn2[C@@H]1O[C@H](COP(=O)(O)OP(=O)(O)OP(=O)(O)O)[C@@H](O)[C@H]1O [ATP]
[2]
  Change in thermal stability (ΔTm): marked change in thermal stability
[3]
  Ligand binding / thermal stabilization: still bound
[4]
  Ligand interaction by thermal shift: severely blunted
[5]
  Ligand-induced thermal shift: stabilization
[6]
  IC50: 3 µM
[7]
  IC50: 0.2 µM

## COc1cc(Nc2ncc3c(n2)-c2ccc(Cl)cc2C(c2c(F)cccc2OC)=NC3)ccc1C(=O)O [MLN8237, alisertib]
[2]
  Change in thermal stability (ΔTm): marked change in thermal stability
[5]
  Ligand-induced thermal shift: stabilization

## CCNC(=O)CCNC(=O)[C@H](O)C(C)(C)COP(=O)(O)OP(=O)(O)OC[C@H]1O[C@@H](n2cnc3c(N)ncnc32)[C@H](O)[C@@H]1OP(=O)(O)O [desulfo-CoA]
[8]
  IC50: 160000 nM

## CN(C)C(=O)/N=N/C(=O)N(C)C [diamide]
[9]
  CoAlation of transiently expressed Aurora A in cells: strongly induced
[10]
  Formation of Aurora A dimers in cells: clearly observed
  Aurora A phosphorylation at Thr 288 in cells: promoted an increase

## OO [hydrogen peroxide]
[10]
  Formation of Aurora A dimers in cells: clearly observed
  Aurora A phosphorylation at Thr 288 in cells: promoted an increase

## CC1=CC(=O)c2ccccc2C1=O [menadione]
[10]
  Formation of Aurora A dimers in cells: clearly observed
  Aurora A phosphorylation at Thr 288 in cells: promoted an increase

## CC(C)(CO)[C@@H](O)C(=O)NCCC(=O)NCCS [pantetheine]
[1]
  Disruption of bipolar spindle formation and chromosome alignment: not

B1: FLAG-tagged WT Aurora A, O14965 1-403 (enzyme)
chain: T1 sequence (O14965 1-403)
modifications: here or on the partner: phosphothreonine at 288 (detected with anti-pT288 antibody after oxidising agents); phosphothreonine at 288 (detected with anti-pT288 antibody after oxidising agents)
[11]
  stoichiometry N: 2

B2: purified Aurora A, O14965 1-403 (enzyme)
chain: T1 sequence (O14965 1-403)
[12]
  stoichiometry N: 2
